Reference: patent US20250276065A1, “Electro Magnetic Transducer Network in the Enhancement of Anti-infective Strategies” (priority 2022, published 2025)
“Also recorded” adds a separate entry of the source.

Tests used:
S. epidermidis biofilms [1] = assay: Crystal violet assay of total biomass of pre-formed S. epidermidis biofilms, PEMF with or without antibiotic (Example 1); type: cell-based, Staphylococcus epidermidis; details: for eradication of S. epidermidis biofilm by antibiotic alone: antibiotic alone at MIC, no PEMF, CV and alamarBlue (FIG. 2, FIG. 3); for combined PEMF + antibiotic treatment compared to theoretical additive effect: antibiotic at MIC, all PEMF time points, p<0.001
Experimental: Experiments were performed initially on S. epidermidis strain ATCC 14990 and further tested on S. epidermidis strain ATCC 35984, which is known to be a particularly strong biofilm former (Okajima, Y. et al., 2006, Invest Ophthalmol Vis Sci, 47(7):2971-2975). Trypticase soy broth (TSB) (30 g l^−1 in water, autoclaved at 121° C. for 15 minutes; BD Bacto TSB from Fisher Scientific) was used for in vitro growth of bacterial cell cultures, and 50% glucose was added to the medium at a final concentration of 0.25%. Sterile Falcon 6-well, clear, flat-bottom, tissue culture-treated, cell culture plates (Corning; Lot #1059012) and sterile CELLSTAR cell culture 24-well, PS, clear, tissue culture-treated plates (Greiner; Lot #E100501A) were used for S. epidermidis cell plating and biofilm growth (6-well plates used for crystal violet assay experiments; 24-well plates used for alamarBlue assay experiments).
The PEMF apparatus was custom made in the laboratory and was previously described in Ghalayani Esfahani et al. 2019 (Esfahani, A. et al., 2019, J Appl Microbiol, 126(1):87-101). Briefly, the PEMF apparatus consisted of an acrylic shelved rack with wrap-around Helmholtz coils, a signal generator, and a power supply. […] A digital oscilloscope (TBS1000C, Tektronix, Beaverton, OR) was used to monitor the signal waveform. All plates not under PEMF treatment were kept in a 37° C. incubator, identical temperature to the PEMF incubator.
S. epidermidis biofilms were grown by initially incubating freezer stock S. epidermidis cell scrapings in TSB media at 37° C. for 24 hours with shaking. Subsequently, the cells were diluted 1:100 into TSB media containing 0.25% glucose and then aliquoted, in 3 ml or 1 ml aliquots, into 6-well or 24-well plates, respectively. To test the ability of PEMF to disrupt pre-formed biofilms, inoculated plates were incubated for 24 hours to allow biofilm formation to occur. Negative controls of only TSB media containing 0.25% glucose (i.e., no cells) were also included for all plates to ensure no contamination occurred.
Crystal Violet (CV) assay was utilized to quantify biofilm formation in vitro as previously described (Esfahani, A. et al., 2019, J Appl Microbiol, 126(1):87-101). After incubation of the biofilm in the plates with or without treatment, the media and any non-adhered cells were removed. The well of the plates were then washed with Wash Buffer three times to ensure only biofilm-adhered cells remained. Next, wells were incubated with CV at room temperature for 15 minutes. The CV stain was then removed, and wells were washed twice with water. An 80% ethanol/20% acetone solution was then added and allowed to incubate for 20 minutes at room temperature to solubilize the dye. Absorbance readings were thereafter obtained at 570 nm and recorded for each well (BMG LABTECH, FLUOstar Omega plate reader).
To test possible synergism between PEMF exposure and antibiotic treatment, the MIC of both oxacillin and vancomycin for the specific S. epidermidis strain used was determined. S. epidermidis were first incubated in TSB media at 37° C. for 24 hours with shaking. […] After 24 hours, OD600 readings of the wells were taken. The MIC of each antibiotic was determined to be the lowest concentration to show inhibition of planktonic S. epidermidis cell growth.
To confirm the reproducibility of results, all experiments were run identically at least three times with similar outcomes before results were analyzed and reported. […]

[2] = tested on: Staph epidermidis biofilm; assay: AlamarBlue biofilm eradication with fNPs or NPs, PEMF and vancomycin (Example 2, Phase I); type: cell-based, Staphylococcus epidermidis
Experimental: A series of experiments were conducted on Staphylococcus epidermidis and aureus. Staph epidermidis cells were grown, diluted, and aliquoted onto cell culture plates. Biofilm was formed by letting the bacteria grow for 48 hrs. in the tissue culture wells. Planktonic cell growth was measured using serial dilutions and subsequently determining CFU/mL counts. Biofilm assay was performed through AlamarBlue cell viability reagent and obtaining fluorescence readings at 544/590 excitation/emission (ex/em). Magnetic nanoparticles functionalized with a lectin, Concanavalin-A, were purchase from Sigma Aldrich. Vancomycin was used as an antibiotic.
Biofilm-containing plates were exposed to different conditions and specifically: • 1) No treatment • 2) Vancomycin alone • 3) PEMF alone • 4) PEMF+Vancomycin • 5) fNPs only (5 different fNPs concentration) • 6) PEMF+fNPs (5 different fNPs concentration) • 7) PEMF+fNPs+Vancomycin (5 different fNPs concentration) • 8) NPs only (5 different fNPs concentration) • 9) PEMF+NPs (5 different fNPs concentration)
The NPs in the functionalized and non-functionalized groups had the same composition and size distribution. PEMF exposure was delivered at 37° C. and various periods: 0 hrs, 6 hrs, and 12 hrs.

[3] = tested on: Staphylococcus epidermidis (SE) biofilm; assay: Biofilm eradication by PEMF and Con-A t-MNPs (Example 3, preliminary data); type: cell-based; details: PEMF + Con-A t-MNPs + antibiotic (FIG. 9)
Experimental: Using Staphylococcus epidermidis (SE), the biofilm eradication increased over 80% when PEMF was administered at a frequency of 50 kHz and a magnetic field amplitude of 1.2 mT along with t-MNPs functionalized with Concanavalin-A (Con-A) that target components of the bacterial membrane, cell wall, and extracellular matrix.

S. epidermidis biofilms [4] = assay: Eradication of pre-formed S. epidermidis biofilm by PEMF + antibiotic on plastic plates (Example 4, Phases 2 and 3); type: cell-based, Staphylococcus epidermidis; details: for combined PEMF + antibiotic treatment compared to theoretical additive effect: all time points, plastic 6-well plates; for eradication of S. epidermidis biofilm by antibiotic alone: no PEMF
Experimental: Staphylococcus epidermidis (S. epidermidis) ATCC 14990 was used for the biofilm experiments. The observed results were further confirmed by repeating said tests on S. epidermidis strain ATCC 35984. To test the above model the cells were first grown in Trypticase Soy Broth (TSB) (30 gl^−1 in purified water, autoclaved at 121° C. for 15 min; Becton, Dickinson and Company, Los Angeles, CA). The cells were incubated for 24 hours at 37° C. and then diluted 1:100 into TSB with glucose and plated. Five phases of experiments with this set-up have been successfully completed:
3) Evaluation of PEMFs ability to enhance the efficacy of antibiotic (specifically oxacillin and vancomycin) treatment against fully formed S. epidermidis biofilms on cell culture treated plastic plates.
For the biofilm inhibition experiments PEMF was applied to all experimental plates immediately after the cells were plated, with the […] being placed in a non-treated 37° C. incubator for the duration of treatment. Alternatively, for phases 2-4, cells were plated and then placed back in the non-treated 37° C. incubator for 24 hours (deemed adequate time for a biofilm to fully form through the literature and confirmed by preliminary experiments) before being exposed to PEMF.
In each phase, PEMF exposure was delivered for the following intervals: • 0 hours ([…] group, in 37° C. incubator for entirety of experiment) • 4 hours×2 cycles (exposed to PEMF hours 1-4, placed in 37° C. incubator hours 5-8, exposed to PEMF hours 9-12) • 12 hours continuously • 24 hours continuously
It is important to note that for all phase 3 trials, all PEMF exposure groups were tested as listed and compared to identical PEMF exposure times plus antibiotic. In phase 5 trials, PEMF exposure was delivered for alternate intervals of 0 hours, 3 hours, 6 hours, and 12 hours. This decision was due to the increased biofilm eradication ability of PEMF when combined with magnetic fNPs. As greater eradication was observed, it was deemed relevant to test shorter PEMF exposure intervals that are more applicable in the clinical setting.
At the conclusion of said experiments, crystal violet and alamarBlue assays were used to quantify the remaining viable biofilm in each well, and CFU/ml counts were used to quantify the planktonic (free-living) S. epidermidis cells.
The calculation performed to determine the theoretical additive effect of PEMF+antibiotic treatment and compare to the empirical effect of simultaneous PEMF and antibiotic treatment was a simple probability calculation: P(A)+(1−P(A))*P(B).

mammalian cells = details: cited from earlier work
Staphylococcal membranes = details: within 60 minutes of exposure; cited from earlier work
[5] = tested on: S. aureus (both methicillin- and vancomycin-resistant), S. epidermidis, and P. aeruginosa; details: cited from earlier work
[6] = up to 20 times its minimum bactericidal concentration; cited from earlier work

Molecule	eradication of S. epidermidis biofilm by antibiotic alone (S. epidermidis biofilms [1])	combined PEMF + antibiotic treatment compared to theoretical additive effect (S. epidermidis biofilms [1])	effect on eradication of adding Vancomycin to fNPs + PEMF ([2]; PEMF + fNPs + Vancomycin)	increase in biofilm eradication ([2]; antibiotic used alone)	change in percentage of eradication when antibiotic was added to the nanoparticles [3]	combined PEMF + antibiotic treatment compared to theoretical additive effect (S. epidermidis biofilms [4])	eradication of S. epidermidis biofilm by antibiotic alone (S. epidermidis biofilms [4])	toxicity to mammalian cells (mammalian cells)	leakage of preloaded intracellular calcein dye (Staphylococcal membranes)	antibacterial activity [5]	cytotoxicity levels [6]	reduction of total biomass, quantified by CV assay (S. epidermidis biofilms [1]; PEMF 24-hour exposure + antibiotic at MIC simultaneously, pre-formed biofilm, vs 48-hour control group, mean)
CN[C@H](CC(C)C)C(=O)N[C@H]1C(=O)N[C@@H](CC(N)=O)C(=O)N[C@H]2C(=O)N[C@H]3C(=O)N[C@H](C(=O)N[C@H](C(=O)O)c4cc(O)cc(O)c4-c4cc3ccc4O)[C@H](O)c3ccc(c(Cl)c3)Oc3cc2cc(c3O[C@@H]2O[C@H](CO)[C@@H](O)[C@H](O)[C@H]2O[C@H]2C[C@](C)(N)[C@H](O)[C@H](C)O2)Oc2ccc(cc2Cl)[C@H]1O [vancomycin]	Neither oxacillin nor vancomycin (FIG. 2, FIG. 3) alone significantly eradicated	synergistically enhanced; also recorded: significantly synergistic	does not increase much the eradication	5%	only slightly increased	significantly synergistic	Neither oxacillin nor vancomycin alone significantly eradicated	–	–	–	–	–
LL-37: human cathelicidin antimicrobial peptide; N-terminal-cysteine form CLLGDFFRKSKEKIGKEFKRIVQRIKDFLRNLVPRTES (SEQ ID NO: 1) (N-terminal cysteine)	–	–	–	–	–	–	–	non-toxic	–	–	–	–
WR12: de novo designed synthetic antimicrobial peptide; N-terminal-cysteine form CRWWRWWRRWWRR (SEQ ID NO: 2) (N-terminal cysteine)	–	–	–	–	–	–	–	–	greater than 95%	potent antibacterial activity	negligible	–
Cc1onc(-c2ccccc2)c1C(=O)N[C@@H]1C(=O)N2[C@@H]1SC(C)(C)[C@@H]2C(=O)O [oxacillin]	Neither oxacillin nor vancomycin (FIG. 2, FIG. 3) alone significantly eradicated	synergistically enhanced; also recorded: significantly synergistic	–	–	only slightly increased	significantly synergistic; also recorded: significant empirical synergism	Neither oxacillin nor vancomycin alone significantly eradicated	–	–	–	–	74%
